Source: patent publication US20260055079A1, “PHTHALAZINONE COMPOUNDS AS PARP7 INHIBITORS” (AZKARRA THERAPEUTICS, INC., priority 2022, published 2026)
Like-named read-outs stand apart in the source and are kept apart here.

Key:
His-GST-PARP7 = His-GST-PARP7 (Homo sapiens (Human), UniProt Q7Z3E1); experiment: PARP7 biochemical assay; details: read-out: PARP7 IC50
[1] = test system: NCI-H1373 (human lung adenocarcinoma) cells; experiment: Cell proliferation assay (CellTiter-Glo), NCI-H1373; type: cell-based; details: read-out: NCI-H1373 GI50
[2] = test system: HARA (human lung squamous cell carcinoma) cells; experiment: Cell proliferation assay (CellTiter-Glo), HARA; type: cell-based; details: read-out: HARA GI50
[3] = test system: CT26 (mouse colon adenocarcinoma) cells; experiment: Cell proliferation assay (CellTiter-Glo), CT26; type: cell-based; details: 6 days
PARP2 = PARP2 (Homo sapiens (Human), UniProt Q9UGN5); experiment: PARP2 biochemical assay
[4] = Homo sapiens, NCI-H1373, 144 h, 6 days, CellTiter-Glo
[5] = Homo sapiens, 144 h, 6 days, CellTiter-Glo

His-GST-PARP7, sequence (Q7Z3E1 whole entry): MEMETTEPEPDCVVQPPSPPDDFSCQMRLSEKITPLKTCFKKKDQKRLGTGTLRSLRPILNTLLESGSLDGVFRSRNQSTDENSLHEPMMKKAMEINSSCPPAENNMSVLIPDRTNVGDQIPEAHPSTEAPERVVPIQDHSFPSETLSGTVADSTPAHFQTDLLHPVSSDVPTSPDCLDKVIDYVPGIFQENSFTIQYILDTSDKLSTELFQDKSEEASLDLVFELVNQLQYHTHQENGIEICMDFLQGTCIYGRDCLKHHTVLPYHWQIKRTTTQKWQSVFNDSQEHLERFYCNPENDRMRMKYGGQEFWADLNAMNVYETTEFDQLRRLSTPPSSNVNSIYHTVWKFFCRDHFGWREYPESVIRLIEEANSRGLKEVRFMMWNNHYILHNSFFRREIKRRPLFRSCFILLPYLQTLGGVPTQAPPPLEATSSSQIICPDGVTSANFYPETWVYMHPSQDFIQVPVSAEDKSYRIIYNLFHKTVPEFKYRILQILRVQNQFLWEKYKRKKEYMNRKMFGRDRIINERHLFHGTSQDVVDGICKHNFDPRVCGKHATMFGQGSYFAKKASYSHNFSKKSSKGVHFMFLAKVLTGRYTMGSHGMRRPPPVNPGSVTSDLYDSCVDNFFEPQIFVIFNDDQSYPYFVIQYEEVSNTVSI
PARP2, sequence (Q9UGN5 whole entry): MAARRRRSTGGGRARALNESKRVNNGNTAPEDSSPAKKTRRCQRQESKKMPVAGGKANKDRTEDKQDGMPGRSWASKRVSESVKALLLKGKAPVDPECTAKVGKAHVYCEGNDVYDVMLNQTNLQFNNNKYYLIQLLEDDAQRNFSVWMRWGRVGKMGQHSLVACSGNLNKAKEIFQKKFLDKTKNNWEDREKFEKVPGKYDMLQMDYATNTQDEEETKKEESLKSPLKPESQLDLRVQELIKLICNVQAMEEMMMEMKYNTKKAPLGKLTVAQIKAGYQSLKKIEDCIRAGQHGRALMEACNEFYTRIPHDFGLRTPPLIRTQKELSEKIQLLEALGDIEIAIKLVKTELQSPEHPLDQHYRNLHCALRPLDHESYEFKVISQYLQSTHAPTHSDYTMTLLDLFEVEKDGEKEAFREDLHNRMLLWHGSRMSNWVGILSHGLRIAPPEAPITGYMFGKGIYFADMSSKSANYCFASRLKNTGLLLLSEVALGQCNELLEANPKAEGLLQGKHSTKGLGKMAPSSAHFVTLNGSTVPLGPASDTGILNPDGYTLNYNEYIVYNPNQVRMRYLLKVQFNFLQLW

Molecule | IC50 (His-GST-PARP7) [nM] | GI50 [1, 4] [nM] | GI50 [2, 5] [nM] | GI50 ([3]; Mus musculus, CT26, 144 h) [nM] | IC50 (PARP2; read-out: PARP2 IC50) [nM] | further results
6-Cyclobutoxy-4-(4-fluoro-3-(2-(hydroxymethyl)-4,5,6,7-tetrahydropyrazolo[1,5-a]pyrazine-5-carbonyl)benzyl)phthalazin-1(2H)-one [Example 168] | 100 to 500 |  |  |  |  | GI50 ([1]; 6 days, CellTiter-Glo): > 5000 nM; GI50 ([2]; 6 days, CellTiter-Glo): > 5000 nM; GI50 [3]: > 5000 nM
N#Cc1ccc(N2CCN(C(=O)c3cc(Cc4n[nH]c(=O)c5ccc(OC6CCC6)cc45)ccc3F)[C@@H]3C[C@@H]32)nc1 (stereo in doubt) [Example 150, 6-(5-(5-((7-cyclobutoxy-4-oxo-3,4-dihydrophthalazin-1-yl)methyl)-2-fluorobenzoyl)-2,5-diazabicyclo[4.1.0]heptan-2-yl)nicotinonitrile] | < 50 | 100 to 1000 | 1000 to 5000 | 1000 to 5000 |  | 
C#CCOc1ccc2c(=O)[nH]nc(Cc3ccc(F)c(C(=O)N4CCN(c5ccc(C#N)cn5)CC4)c3)c2c1 [Example 3, 6-(4-(2-fluoro-5-((4-oxo-7-(prop-2-yn-1-yloxy)-3,4-dihydrophthalazin-1-yl)methyl)benzoyl)piperazin-1-yl)nicotinonitrile] | < 50 |  |  |  | < 50 | GI50 ([1]; Homo sapiens, NCI-H1373, 144 h): < 100 nM; GI50 ([2]; Homo sapiens, 144 h): 1000 to 5000 nM
COc1ccc2c(=O)[nH]nc(Cc3cccc(C(=O)N4CCN(c5ccc(C#N)cn5)CC4)c3)c2c1 [Example 4, 6-(4-(3-((7-Methoxy-4-oxo-3,4-dihydrophthalazin-1-yl)methyl)benzoyl)piperazin-1-yl)nicotinonitrile] | < 50 | < 100 | 1000 to 5000 | 100 to 1000 |  | 
N#Cc1ccc(N2CCN(C(=O)c3cc(Cc4n[nH]c(=O)c5ccc(OC6CCC6)cc45)ccc3F)CC2)nc1 [Example 14, 6-(4-(5-((7-Cyclobutoxy-4-oxo-3,4-dihydrophthalazin-1-yl)methyl)-2-fluorobenzoyl)piperazin-1-yl)nicotinonitrile] | < 50 |  |  |  |  | IC50 (PARP2): 500 to 2000 nM; GI50 ([1]; Homo sapiens, NCI-H1373, 144 h): < 100 nM; GI50 ([2]; Homo sapiens, 144 h): 1000 to 5000 nM
N#Cc1ccc(N2CCN(C(=O)c3cc(Cc4n[nH]c(=O)c5ccc(OC(F)(F)F)cc45)ccc3F)CC2)nc1 [Example 30, 6-(4-(2-fluoro-5-((4-oxo-7-(trifluoromethoxy)-3,4-dihydrophthalazin-1-yl)methyl)benzoyl)piperazin-1-yl)nicotinonitrile] | < 50 | 100 to 1000 |  |  | 100 to 500 | 
N#Cc1ccc(N2CCN(C(=O)c3cc(Cc4n[nH]c(=O)c5ccc(N6CC7(CCC7)C6)cc45)ccc3F)CC2)nc1 [Example 31, 6-(4-(2-Fluoro-5-((4-oxo-7-(2-azaspiro[3.3]heptan-2-yl)-3,4-dihydrophthalazin-1-yl)methyl)benzoyl)piperazin-1-yl)nicotinonitrile] | < 50 | 100 to 1000 |  |  | > 2000 | 
N#Cc1ccc(N2CCN(C(=O)c3cc(Cc4n[nH]c(=O)c5ccc(N6CC(C(F)(F)F)C6)cc45)ccc3F)CC2)nc1 [Example 34, 6-(4-(2-Fluoro-5-((4-oxo-7-(3-(trifluoromethyl)azetidin-1-yl)-3,4-dihydrophthalazin-1-yl)methyl)benzoyl)piperazin-1-yl)nicotinonitrile] | < 50 | 100 to 1000 |  |  | 500 to 2000 | 
CC(F)(F)c1ccc2c(=O)[nH]nc(Cc3ccc(F)c(C(=O)N4CCN(c5ccc(C#N)cn5)CC4)c3)c2c1 [Example 36, 6-(4-(5-((7-(1,1-Difluoroethyl)-4-oxo-3,4-dihydrophthalazin-1-yl)methyl)-2-fluorobenzoyl)piperazin-1-yl)nicotinonitrile] | 50 to 100 | 100 to 1000 |  |  | < 50 | 
N#Cc1ccc(N2CCN(C(=O)c3cc(Cc4n[nH]c(=O)c5ccc(OC6CC(F)(F)C6)cc45)ccc3F)CC2)nc1 [Example 51, 6-(4-(5-((7-(3,3-Difluorocyclobutoxy)-4-oxo-3,4-dihydrophthalazin-1-yl)methyl)-2-fluorobenzoyl)piperazin-1-yl)nicotinonitrile] | < 50 | < 100 | > 5000 | 1000 to 5000 |  | 
N#Cc1ccc(N2CCN(C(=O)c3cc(Cc4n[nH]c(=O)c5ccc(S(=O)(=O)C6CCC6)cc45)ccc3F)CC2)nc1 [Example 53, 6-(4-(5-((7-(cyclobutylsulfonyl)-4-oxo-3,4-dihydrophthalazin-1-yl)methyl)-2-fluorobenzoyl)piperazin-1-yl)nicotinonitrile] | 100 to 500 | > 5000 | > 5000 | > 5000 |  | 
CC#Cc1ccc2c(=O)[nH]nc(Cc3cc(F)c(F)c(C(=O)N4CCN(c5ccc(C#N)cn5)CC4)c3)c2c1 [Example 74, 6-(4-(2,3-Difluoro-5-((4-oxo-7-(prop-1-ynyl)-3,4-dihydrophthalazin-1-yl)methyl)benzoyl)piperazin-1-yl)nicotinonitrile] | < 50 | 100 to 1000 |  |  | 50 to 100 | 
CC#Cc1ccc2c(=O)[nH]nc(Cc3ccc(F)c(C(=O)N4CCN(c5ccc(C#N)cn5)CC4)c3)c2c1OC [Example 81, 6-(4-(2-Fluoro-5-((8-methoxy-4-oxo-7-(prop-1-yn-1-yl)-3,4-dihydrophthalazin-1-yl)methyl)benzoyl)piperazin-1-yl)nicotinonitrile] | < 50 | < 100 | 100 to 1000 | < 100 |  | 
CC#Cc1cc(Cl)c2c(=O)[nH]nc(Cc3ccc(F)c(C(=O)N4CCN(c5ccc(C#N)cn5)CC4)c3)c2c1 [Example 85, 6-(4-(5-((5-chloro-4-oxo-7-(prop-1-yn-1-yl)-3,4-dihydrophthalazin-1-yl)methyl)-2-fluorobenzoyl)piperazin-1-yl)nicotinonitrile] | 100 to 500 | < 100 |  |  | 50 to 100 | 
COc1cc2c(Cc3ccc(F)c(C(=O)N4CCN(c5ccc(C#N)cn5)CC4)c3)n[nH]c(=O)c2cn1 [Example 91, 6-(4-(2-fluoro-5-((7-methoxy-4-oxo-3,4-dihydropyrido[4,3-d]pyridazin-1-yl)methyl)benzoyl)piperazin-1-yl)nicotinonitrile] | < 50 | 1000 to 5000 | > 5000 | > 5000 |  | 
N#Cc1ccc(N2CCN(C(=O)c3cc(Cc4n[nH]c(=O)c5c(C(F)(F)F)cc(OC6CCC6)cc45)ccc3F)CC2)nc1 [Example 93, 6-(4-(5-((7-Cyclobutoxy-4-oxo-5-(trifluoromethyl)-3,4-dihydrophthalazin-1-yl)methyl)-2-fluorobenzoyl)piperazin-1-yl)nicotinonitrile] | < 50 | < 100 | 1000 to 5000 | 1000 to 5000 |  | 
N#Cc1ccc(N2CCCN(C(=O)c3cc(Cc4n[nH]c(=O)c5ccc(OC6CCC6)cc45)ccc3F)CC2)nc1 [Example 94, 6-(4-(5-((7-Cyclobutoxy-4-oxo-3,4-dihydrophthalazin-1-yl)methyl)-2-fluorobenzoyl)-1,4-diazepan-1-yl)nicotinonitrile] | < 50 | < 100 | 1000 to 5000 | 1000 to 5000 |  | 
COc1ccnc(N2CCN(C(=O)c3cc(Cc4n[nH]c(=O)c5ccc(OC6CCC6)cc45)ccc3F)CC2)c1 [Example 128, 6-cyclobutoxy-4-(4-fluoro-3-(4-(4-methoxypyridin-2-yl)piperazine-1-carbonyl)benzyl)phthalazin-1(2H)-one] | < 50 | 100 to 1000 | 1000 to 5000 | 1000 to 5000 |  | 
N#Cc1ccc(N2CCN(C(=O)c3cc(Cc4n[nH]c(=O)c5ccc(OC6CCC6)cc45)ccc3F)CC2)nc1C(F)(F)F [Example 135, 6-(4-(5-((7-cyclobutoxy-4-oxo-3,4-dihydrophthalazin-1-yl)methyl)-2-fluorobenzoyl)piperazin-1-yl)-2-(trifluoromethyl)nicotinonitrile] | 50 to 100 | 100 to 1000 | > 5000 | > 5000 |  | 
Cc1cc(C#N)cnc1N1CCN(C(=O)c2cc(Cc3n[nH]c(=O)c4ccc(OC5CCC5)cc34)ccc2F)CC1 [Example 138, 6-(4-(5-((7-cyclobutoxy-4-oxo-3,4-dihydrophthalazin-1-yl)methyl)-2-fluorobenzoyl)piperazin-1-yl)-5-methylnicotinonitrile] | < 50 | 100 to 1000 | 1000 to 5000 | > 5000 |  | 
N#Cc1ccc(-c2nnc3n2CCN(C(=O)c2cc(Cc4n[nH]c(=O)c5ccc(OC6CCC6)cc45)ccc2F)C3)nc1 [Example 139, 6-(7-(5-((7-cyclobutoxy-4-oxo-3,4-dihydrophthalazin-1-yl)methyl)-2-fluorobenzoyl)-5,6,7,8-tetrahydro-[1,2,4]triazolo[4,3-a]pyrazin-3-yl)nicotinonitrile] | < 50 | 100 to 1000 | 1000 to 5000 | > 5000 |  | 
N#Cc1ccc(N2CC3(CN(C(=O)c4cc(Cc5n[nH]c(=O)c6ccc(OC7CCC7)cc56)ccc4F)C3)C2)nc1 [Example 148, 6-(6-(5-((7-cyclobutoxy-4-oxo-3,4-dihydrophthalazin-1-yl)methyl)-2-fluorobenzoyl)-2,6-diazaspiro[3.3]heptan-2-yl)nicotinonitrile] | 500 to 2000 | > 5000 | > 5000 | > 5000 |  | 
CC#Cc1ccc2c(=O)[nH]nc(C(C)N(C)CCC(=O)N3CCN(c4ncc(C(F)(F)F)cn4)CC3)c2c1 (stereo not shown) [Example 193, 4-(1-(methyl(3-oxo-3-(4-(5-(trifluoromethyl)pyrimidin-2-yl)piperazin-1-yl)propyl)amino)ethyl)-6-(prop-1-yn-1-yl)phthalazin-1(2H)-one] | < 50 | 100 to 1000 |  |  | > 2000 | 
